Columns and labels:
[1] = system: Dengue 2, New Guinea strain (NGC); experiment: DENV-2 moDC EC50 (qPCR of viral RNA in infected moDCs); assay type: cell-based, New Guinea strain (NGC); human moDCs; conditions: Dengue virus, human moDCs infected with Dengue 2 NGC, MOI=0.1, 48 hours
Protocol: Example 82. DENV-2 moDC EC50
Human monocyte-derived dendritic cells (moDCs) were derived from CD14+ monocytes (AllCells) cultured in Human Mo-DC Differentiation medium containing GM-CSF and IL-4 (Miltenyi Biotec). On day 7, moDCs were harvested by mechanical disruption, washed and suspended in serum-free RPMI. moDCs were infected with Vero-derived Dengue 2, New Guinea strain (NGC) at a MOI=0.1 for two hours in serum-free RPMI with gentle agitation at 37° C. Cells were washed and resuspended in 10% serum-containing RPMI (Gibco, supplemented with sodium pyruvate, NEAA, Penicillin-Streptomycin). […] were plated in triplicate in 96-well plates with compounds dispensed at graded doses (Hewlett-Packard D300 Digital Dispenser). All wells were normalized to 0.25% DMSO. At 48 hours, cells were washed with 1×PBS and all supernatants removed. Total RNA was extracted using RNEasy 96 plates (Qiagen) and used to generate first-strand cDNA using XLT cDNA 5× Supermix (QuantaBio). cDNA was used as a template in a Taqman qPCR duplex reaction specific to DENV2 viral and GAPDH gene expression. EC50 values were determined using Prism Graphpad software, with normalization to a positive control and no compound negative control wells.

[2] = moDC CC50 (CellTiter Glo viability); assay type: cell-based, Human; conditions: human, uninfected moDCs
Protocol: Human monocyte-derived dendritic cells (moDCs) were derived from CD14+ monocytes (AllCells) cultured in Human Mo-DC Differentiation medium containing GM-CSF and IL-4 (Miltenyi Biotec). On day 7, moDCs were harvested by mechanical disruption, washed and cultured in triplicate at […] cells/well in 96-well plates with compounds dispensed at graded doses (Hewlett-Packard D300 Digital Dispenser). All wells were normalized to 0.25% DMSO. After 48 hours, CellTiter Glo (Promega) was added and incubated for 10 minutes at room temp before reading on a luminometer. % viability curves were calculated against no compound and no cell control wells. CC50 values were determined using Prism Graphpad software.

[3] = system: Dengue serotype 2 New Guinea C (NGC) strain; experiment: DENV-2 Huh-7 EC50 (qPCR of viral RNA in infected Huh7 cells); assay type: cell-based; conditions: Dengue virus, DENV2, Huh-7, Huh7 cells infected with Dengue serotype 2 NGC, MOI=0.1, 48 hours
Protocol: Huh7 (Human hepatocarcinoma 7) cells were maintained in 10% FCS-containing DMEM complete media. On the day of the assay, cells were trypsinized (0.1% Trypsin-EDTA), washed and infected for 2 hours in serum-free DMEM with Dengue serotype 2 New Guinea C (NGC) strain at MOI=0.1 with gentle agitation at 37° C. After 2 hours, cells were washed with serum-free media and suspended in 10% FCS-containing DMEM (Gibco, supplemented with sodium pyruvate, NEAA, Penicillin-Streptomycin). 10^5 cells were plated in triplicate in 96-well plates with compounds dispensed at graded doses (Hewlett-Packard D300 Digital Dispenser). All wells were normalized to 0.25% DMSO. At 48 hours, cells were washed with 1× PBS and all supernatants removed. Total RNA was extracted using RNEasy 96 plates (Qiagen) and used to generate first-strand cDNA using XLT cDNA 5× Supermix (QuantaBio). cDNA was used as a template in a Taqman qPCR duplex reaction specific to DENV2 viral and GAPDH gene expression. EC50 values were determined using Prism Graphpad software, with normalization to a positive control and no compound negative control wells.

[4] = Huh-7 CC50 (CellTiter Glo viability); assay type: cell-based, Human; conditions: human, Huh7 hepatocarcinoma cells
Protocol: Human hepatocarcinoma 7 (Huh7) cells were maintained in 10% FCS-containing complete DMEM. On day of assay, cells were trypsinized with 0.1% Trypsin-EDTA, washed and cultured in triplicate at 1-2×10^4 cells/well in 96-well plates with compounds dispensed at graded doses (Hewlett-Packard D300 Digital Dispenser). All wells were normalized to 0.25% DMSO. After 48 hours, CellTiter Glo (Promega) was added and incubated for 10 minutes at room temp before reading on a luminometer. % viability curves were calculated against no compound and no cell control wells. CC50 values were determined using Prism Graphpad software.

[5] = system: RSV strain A2; experiment: RSV HEp-2 EC50 (infectious cytopathic cell protection assay); assay type: cell-based, RSV strain A2; HEp-2 cells; conditions: human respiratory syncytial virus, HEp-2, 96 h, read-out: RSV Hep-2 EC50
Protocol: Example 86. RSV HEp-2 EC50
Antiviral activity against RSV is determined using an infectious cytopathic cell protection assay in HEp-2 cells. In this assay, compounds inhibiting viral infection and/or replication produce a cytoprotective effect against the virus-induced cell killing that can be quantified using a cell viability reagent. The techniques used here are novel adaptations of methods described in published literature (Chapman et al., Antimicrob Agents Chemother. 2007, 51(9):3346-53.)
HEp-2 cells are obtained from ATCC (Manassas, VI) and maintained in MEM media supplemented with 10% fetal bovine serum and penicillin/streptomycin. Cells are passaged twice a week and kept at subconfluent stage. Commercial stock of RSV strain A2 (Advanced Biotechnologies, Columbia, MD) is titered before compound testing to determine the appropriate dilution of the virus stock that generates desirable cytopathic effect in HEp-2 cells.
For antiviral tests, HEp-2 cells are grown in large cell culture flasks to near confluency but not fully so. The compounds to be tested are prediluted in DMSO in 384-well compound dilution plates, either in an 8 or 40 sample per plate standardized dose response format. 3-fold serial dilution increments of each test compound are prepared in the plates and test samples are transferred via acoustic transfer apparatus (Echo, Labcyte) at 100 nL per well into cell culture assay 384-well plates. Each compound dilution is transferred in single or quadruplicate samples into dry assay plates, which are stored until assay is ready to go. The positive and negative controls are laid out in opposite on ends of the plate in vertical blocks (1 column).
Subsequently, an infectious mixture is prepared using an appropriate dilution of virus stock previously determined by titration with cells at a density of 50,000/mL and 20 uL/well is added to test plates w/compounds via automation (uFlow, Biotek). Each plate includes negative and positive controls (16 replicates each) to create 0% and 100% virus inhibition standards, respectively. Following the infection with RSV, testing plates are incubated for 4 days in a 37° C. cell culture incubator. After the incubation, a cell viability reagent, Cell TiterGlo (Promega, Madison, WI) is added to the assay plates, which are incubated briefly, and a luminescent readout is measured (Envision, Perkin Elmer) in all the assay plates. The RSV-induced cytopathic effect, percentage inhibition, is determined from the levels of remaining cell viability. […] Various potent anti-RSV tool compounds are used as positive controls for antiviral activity.

[6] = HEp-2 CC50 (cytotoxicity in uninfected HEp-2 cells); assay type: cell-based; conditions: human, CellTiter Glo
Protocol: Instead, an uninfected cell mixture at the same density is added at 20 uL/well to plates containing prediluted compounds, also at 100 nL/sample. Assay plates are then incubated for 4 days followed by a cell viability test using the same CellTiter Glo reagent addition and measurement of luminescent readouts. Untreated cell and cells treated at 2 μM puromycin (Sigma, St. Louis, MO) serve as 100% and 0% cell viability control, respectively.

Row | Structure (SMILES) | EC50 [1] [nM] | CC50 at 48 h [2] [µM] | EC50 [3] [nM] | CC50 at 48 h [4] [µM] | EC50 [5] [nM] | CC50 at 4 days [6] [µM]
1 | CC(C)OC(=O)[C@H](C)N[P@](=O)(OC[C@@]1(CF)O[C@@H](c2ccc3c(N)ncnn23)[C@H](O)[C@@H]1O)Oc1ccccc1 (single isomer, unassigned) [Example 12] | 753 | > 25 | 453 | > 25 | 1370 | > 100
2 | CCCCCCOC(=O)[C@H](C)N[P@@](=O)(OC[C@@]1(CF)O[C@@H](c2ccc3c(N)ncnn23)[C@H](O)[C@@H]1O)Oc1ccccc1 (single isomer, unassigned) [Example 18] | 264 | > 10.5 | 384 | > 25 | 1300 | > 100
3 | CCCCCCOC(=O)[C@H](C)N[P@](=O)(OC[C@@]1(CF)O[C@@H](c2ccc3c(N)ncnn23)[C@H](O)[C@@H]1O)Oc1ccccc1 (single isomer, unassigned) [Example 19] | 212 | 10.9 | 416 | > 25 | 722 | > 97.1
4 | CCC(CC)COC(=O)[C@H](C)N[P@](=O)(OC[C@@]1(CF)O[C@@H](c2ccc3c(=N)n(COP(=O)(O)O)cnn23)[C@H](O)[C@@H]1O)Oc1ccccc1 (single isomer, unassigned) [Example 34] | 334 | 7.66 | 165 | 6.47 |  | 
5 | CCCCOC(=O)[C@H](C)N[P@](=O)(OC[C@@]1(CF)O[C@@H](c2ccc3c(N)ncnn23)[C@H](O)[C@@H]1O)Oc1ccccc1 (single isomer, unassigned) [Example 46] | 158 | 3.35 | 386 | 10.2 | 236 | 37.1
6 | CC(C)C(=O)O[C@H]1[C@H](c2ccc3c(N)ncnn23)O[C@](CF)(COP(=O)(N[C@@H](C)C(=O)OC2CCCCC2)Oc2ccccc2)[C@H]1OC(=O)C(C)C (single isomer, unassigned) [Example 63] | 321 | 5.6 | 602 | 10.7 | 2420 | 19.1
7 | C[C@H](NP(=O)(OC[C@@]1(CF)O[C@@H](c2ccc3c(N)ncnn23)[C@H](O)[C@@H]1O)Oc1ccccc1)C(=O)OCC(C)(C)C (stereo partly drawn) [Example 3, neopentyl ((((2R,3S,4R,5S)-5-(4-aminopyrrolo[2,1-f][1,2,4]triazin-7-yl)-2-(fluoromethyl)-3,4-dihydroxytetrahydrofuran-2-yl)methoxy)(phenoxy)phosphoryl)-L-alaninate] | 156 | > 11.1 | 92 | > 25 | 77 | > 100
8 | C[C@H](NP(=O)(OC[C@@]1(CF)O[C@@H](c2ccc3c(N)ncnn23)[C@H](O)[C@@H]1O)Oc1ccccc1)C(=O)OCC(C)(C)C(F)(F)F (stereo partly drawn) [Example 53, 3,3,3-trifluoro-2,2-dimethylpropyl ((((2R,3S,4R,5S)-5-(4-aminopyrrolo[2,1-f][1,2,4]triazin-7-yl)-2-(fluoromethyl)-3,4-dihydroxytetrahydrofuran-2-yl)methoxy)(phenoxy)phosphoryl)-L-alaninate] |  |  | 419 | 19.7 | 565 | > 100
9 | CCC(CC)COC(=O)[C@H](C)N[P@](=O)(OC[C@@]1(CF)O[C@@H](c2ccc3c(N)ncnn23)[C@H](OC(C)=O)[C@@H]1OC(C)=O)Oc1ccccc1 [Example 60, (2R,3S,4S,5S)-5-(4-aminopyrrolo[2,1-f][1,2,4]triazin-7-yl)-2-((((S)-(((S)-1-(2-ethylbutoxy)-1-oxopropan-2-yl)amino)(Phenoxy)phosphoryl)oxy)methyl)-2-(fluoromethyl)tetrahydrofuran-3,4-diyl diacetate] |  |  | 1210 | > 24.8 | 1100 | 36.2
10 | CCOC(=O)[C@@H](NP(=O)(OC[C@@]1(CF)O[C@@H](c2ccc3c(N)ncnn23)[C@H](O)[C@@H]1O)Oc1ccccc1)C(C)C (stereo partly drawn) [Example 69, ethyl ((((2R,3S,4R,5S)-5-(4-aminopyrrolo[2,1-f][1,2,4]triazin-7-yl)-2-(fluoromethyl)-3,4-dihydroxytetrahydrofuran-2-yl)methoxy)(phenoxy)phosphoryl)-L-valinate] |  |  | > 25000 | > 25 | > 50000 | > 50
11 | C[C@H](N[P@](=O)(OC[C@@]1(CF)O[C@@H](c2ccc3c(N)ncnn23)[C@H](O)[C@@H]1O)Oc1ccccc1)C(=O)OC1COC1 [Example 72, oxetan-3-yl ((S)-(((2R,3S,4R,5S)-5-(4-aminopyrrolo[2,1-f][1,2,4]triazin-7-yl)-2-(fluoromethyl)-3,4-dihydroxytetrahydrofuran-2-yl)methoxy)(phenoxy)phosphoryl)-L-alaninate] |  |  | 12400 | > 25 | 15600 | > 50

— patent US12030903B2, “Antiviral compounds” (Gilead Sciences, Inc., priority 2020, dated 2024)
